Source: US8354414B2, “Substituted bicyclic pyrimidines” (Cephalon, Inc, priority 2006, dated 2013)
Read-outs that look alike come from different tables or passages of the source.

What was measured:
[1] = molecular target: T1, His6-GSK-3β (Homo sapiens, UniProt P49841); experiment: Inhibition of His6-GSK-3β kinase activity (ELISA-based format, time-resolved fluorescence readout); format: biochemical; details: for IC50: read-out: GSK3β IC50
T1 construct: made in house; host or cells: Sf21 insect cells (baculovirus)
Summary of the method: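 N-terminal His6-tagged full-length human GSK-3β (aa 2-419) expressed in Sf21 cells, 200 ng/ml, phosphorylating plate-coated GST-Rb with 20 μM ATP in pH 7.2 HEPES buffer, 30 min at 37° C. Phospho-Rb (Ser-780) detected by antibody plus Eu-labelled secondary, time-resolved fluorescence; IC50 from curves.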

[2] = molecular target: T2, CDK5/GST-p25 (Homo sapiens, UniProt Q00535); experiment: Inhibition of CDK5/GST-p25 kinase activity (ELISA with time-resolved fluorescence readout); format: biochemical
T2 construct: The final construct, encoding for full-length human CDK5; made in house; host or cells: Sf21 insect cells (baculovirus co-infection)
Summary of the method: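 Sf21-coexpressed full-length human CDK5 with GST-p25 (p35 aa 108-307), glutathione-purified, at 2 ng/ml was reacted for 20 min at 37 °C on plate-coated GST-Rb(773-928). Buffer was 20 mM HEPES pH 7.2, 10 µM ATP, 10 mM MgCl2 and 2.5% DMSO. Phospho-Rb Ser-780 was detected by Eu-labelled antibody TRF, and IC50 curves were fitted.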

T2 sequence (Q00535 whole entry): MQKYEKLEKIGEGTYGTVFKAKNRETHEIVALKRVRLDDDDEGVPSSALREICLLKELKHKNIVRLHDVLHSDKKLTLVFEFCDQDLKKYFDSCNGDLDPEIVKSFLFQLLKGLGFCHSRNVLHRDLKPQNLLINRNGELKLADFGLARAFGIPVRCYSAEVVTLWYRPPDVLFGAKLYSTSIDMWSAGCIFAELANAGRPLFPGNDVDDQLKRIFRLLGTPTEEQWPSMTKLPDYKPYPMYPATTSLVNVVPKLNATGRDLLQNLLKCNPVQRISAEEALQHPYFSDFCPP
T2 sequence (Q15078 108-307 partner limits assumed): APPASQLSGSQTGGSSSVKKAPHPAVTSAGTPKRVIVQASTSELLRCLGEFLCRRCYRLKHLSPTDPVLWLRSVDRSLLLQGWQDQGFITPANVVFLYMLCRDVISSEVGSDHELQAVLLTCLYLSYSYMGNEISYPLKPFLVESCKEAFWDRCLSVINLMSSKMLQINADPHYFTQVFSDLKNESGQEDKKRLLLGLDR
T1 sequence (P49841 2-419): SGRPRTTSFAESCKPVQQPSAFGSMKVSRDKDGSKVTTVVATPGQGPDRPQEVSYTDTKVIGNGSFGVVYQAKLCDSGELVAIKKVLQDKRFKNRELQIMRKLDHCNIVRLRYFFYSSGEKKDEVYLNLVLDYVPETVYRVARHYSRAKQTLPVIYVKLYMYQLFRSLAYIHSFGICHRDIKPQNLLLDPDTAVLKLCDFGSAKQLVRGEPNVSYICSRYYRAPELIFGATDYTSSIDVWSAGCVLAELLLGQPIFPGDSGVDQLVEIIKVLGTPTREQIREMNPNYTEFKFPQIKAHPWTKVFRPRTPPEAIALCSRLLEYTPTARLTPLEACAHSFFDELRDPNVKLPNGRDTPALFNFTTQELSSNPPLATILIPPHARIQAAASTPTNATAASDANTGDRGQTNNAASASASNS

melting point	IC50 ([1]; class symbols) [nM]	inhibition at 10 µM [2] [%]	IC50 ([2]; class symbols) [nM]	IC50 ([1]; numeric bounds) [nM]	IC50 ([2]; numeric bounds) [nM]	GSK3β % @10 μM ([1]; @10 μM) [% @10 μM]	SMILES
246 to 248 °C	300 to 3000	43	–	–	–	–	O=C1Nc2ccccc2C1c1nc(NCCc2ccccn2)nc2nn(C3CCCC3)cc12 (stereo not drawn) [Example 242, 3-[2-Cyclopentyl-6-(2-pyridin-2-yl-ethylamino)-2H-pyrazolo[3,4-d]pyrimidin-4-yl]-1,3-dihydro-indol-2-one]
277 to 280 °C	> 10000	–	> 10000	–	–	–	O=C1Nc2cc(F)ccc2C1c1ncnc2c1cnn2C1CCCCC1 (stereo not drawn) [Example 73, 3-(1-Cyclohexyl-1H-pyrazolo[3,4-d]pyrimidin-4-yl)-6-fluoro-1,3-dihydro-indol-2-one]
284 °C (dec.)	–	–	> 10000	> 3000	–	–	CC(C)Cn1cc2c(C3C(=O)Nc4ccc(Cl)cc43)nc(Cl)nc2n1 (stereo not drawn) [Example 261, 5-Chloro-3-(6-chloro-2-isobutyl-2H-pyrazolo[3,4-d]pyrimidin-4-yl)-1,3-dihydro-indol-2-one]
276 to 278 °C	< 300	–	< 300	–	–	–	CCOCCn1cc2c(C3C(=O)Nc4ccc(Br)cc43)nc(NCCN3CCOCC3)nc2n1 (stereo not drawn) [Example 240, 5-Bromo-3-[2-(2-ethoxy-ethyl)-6-(2-morpholin-4-yl-ethylamino)-2H-pyrazolo [3,4-d]pyrimidin-4-yl]-1,3-dihydro-indol-2-one]
299 to 303 °C	< 300	–	< 300	–	–	–	CCCn1cc2c(C3C(=O)Nc4ccc(Br)cc43)nc(NCCN3CCOCC3)nc2n1 (stereo not drawn) [Example 202, 5-Bromo-3-[6-(2-morpholin-4-yl-ethylamino)-2-propyl-2H-pyrazolo [3,4-d]pyrimidin-4-yl]-1,3-dihydro-indol-2-one]
287 to 290 °C	> 10000	–	–	–	> 3000	–	O=C1Nc2ccc(Br)cc2C1c1ncnc2c1cnn2C1CCCC1 (stereo not drawn) [Example 54, 5-Bromo-3-(1-cyclopentyl-1H-pyrazolo[3,4-d]pyrimidin-4-yl)-1,3-dihydro-indol-2-one]
300 to 305 °C	> 10000	–	> 10000	–	–	–	O=C1Nc2ccc(Cl)cc2C1c1ncnc2c1cnn2C1CCCCC1 (stereo not drawn) [Example 74, 5-Chloro-3-(1-Cyclohexyl-1H-pyrazolo[3,4-d]pyrimidin-4-yl)-1,3-dihydro-indol-2-one]
293 to 295 °C	300 to 3000	–	300 to 3000	–	–	–	CCOCCn1cc2c(C3C(=O)Nc4ccc(Cl)cc43)nc(NCCN(C)C)nc2n1 (stereo not drawn) [Example 216, 5-Chloro-3-[6-(2-dimethylamino-ethylamino)-2-(2-ethoxy-ethyl)-2H-pyrazolo[3,4-d]pyrimidin-4-yl]-1,3-dihydro-indol-2-one]
> 300 °C	< 300	–	< 300	–	–	–	CCCn1cc2c(C3C(=O)Nc4ccc(Br)cc43)ncnc2n1 (stereo not drawn) [Example 97, 5-Bromo-3-(2-propyl-2H-pyrazolo[3,4-d]pyrimidin-4-yl)-1,3-dihydro-indol-2-one]
> 300 °C	< 300	–	< 300	–	–	–	COCCn1cc2c(C3C(=O)Nc4ccc(Br)cc43)nc(NC[C@H](C)O)nc2n1 (stereo partly drawn) [Example 230, 5-Bromo-3-[6((S)-2-hydroxy-propylamino)-2-(2-methoxy-ethyl)-2H-pyrazolo [3,4-d]pyrimidin-4-yl]-1,3-dihydro-indol-2-one]
254 to 257 °C	> 10000	–	> 10000	–	–	–	O=C1Nc2ccc(F)cc2C1c1ncnc2c1cnn2C1CCCC1 (stereo not drawn) [Example 65, 3-(1-Cyclopentyl-1H-pyrazolo[3,4-d]pyrimidin-4-yl)-5-fluoro-1,3-dihydro-indol-2-one]
198 to 200 °C	< 300	–	–	–	> 3000	–	CN(C)CCCNc1nc(C2C(=O)Nc3ccc(Br)cc32)c2cn(C3CCCC3)nc2n1 (stereo not drawn) [Example 371, 5-Bromo-3-[2-cyclopentyl-6-(3-dimethylamino-propylamino)-2H-pyrazolo [3,4-d]pyrimidin-4-yl]-1,3-dihydro-indol-2-one]
297 to 298.5 °C	< 300	–	< 300	–	–	–	CC(C)CNc1nc(C2C(=O)Nc3ccc(C#N)cc32)c2cn(C3CCCC3)nc2n1 (stereo not drawn) [Example 165, 3-(2-cyclopentyl-6-isobutylamino-2H-pyrazolo [3,4-d]pyrimidin-4-yl)-2-oxo-2,3-dihydro-1H-indole-5-carbonitrile]
198 to 200 °C	< 300	–	300 to 3000	–	–	–	O=C1Nc2ccccc2C1c1nc(NCc2ccncc2)nc2nn(C3CCCC3)cc12 (stereo not drawn) [Example 241, 3-{2-Cyclopentyl-6-[(pyridin-4-ylmethyl)-amino]-2H-pyrazolo[3,4-d]pyrimidin-4-yl}-1,3-dihydro-indol-2-one]
> 300 °C (dec.)	< 300	–	< 300	–	–	–	N#Cc1ccc2c(c1)C(c1ncnc3[nH]ncc13)C(=O)N2 (stereo not drawn) [Example 109, 2-Oxo-3-(1H-pyrazolo[3,4-d]pyrimidin-4-yl)-2,3-dihydro-1H-indole-5-carbonitrile]
> 300 °C	> 10000	–	> 10000	–	–	–	CCOCCn1cc2c(C3C(=O)Nc4ccc(Cl)cc43)nc(Cl)nc2n1 (stereo not drawn) [Example 211, 5-Chloro-3-[6-chloro-2-(2-ethoxy-ethyl)-2H-pyrazolo[3,4-d]pyrimidin-4-yl]-1,3-dihydro-indol-2-one]
297 to 300 °C	300 to 3000	–	300 to 3000	–	–	–	O=C1Nc2cc(F)ccc2C1c1ncnc2nn(C3CCCCC3)cc12 (stereo not drawn) [Example 50, 3-(2-cyclohexyl-2H-pyrazolo[3,4-d]pyrimidin-4-yl)-6-fluoro-1,3-dihydro-indol-2-one]
280 to 284 °C	300 to 3000	–	300 to 3000	–	–	–	O=C1Nc2ccc(F)c(F)c2C1c1ncnc2nn(C3CCCC3)cc12 (stereo not drawn) [Example 42, 3-(2-Cyclopentyl-2H-pyrazolo[3,4-d]pyrimidin-4-yl)-4,5-difluoro-1,3-dihydro-indol-2-one]
235 °C (dec.)	< 300	–	< 300	–	–	–	CCCCCn1cc2c(C3C(=O)Nc4ccc(C(F)(F)F)cc43)nc(NCCCN)nc2n1 (stereo not drawn) [Example 289, 3-[6-(3-Amino-propylamino)-2-pentyl-2H-pyrazolo[3,4-d]pyrimidin-4-yl]-5-trifluoromethyl-1,3-dihydro-indol-2-one]
294 to 297 °C	< 300	–	< 300	–	–	–	CCCn1cc2c(C3C(=O)Nc4ccc(Br)cc43)nc(NCCc3cccnc3)nc2n1 (stereo not drawn) [Example 189, 5-Bromo-3-[2-propyl-6-(2-pyridin-3-yl-ethylamino)-2H-pyrazolo [3,4-d]pyrimidin-4-yl]-1,3-dihydro-indol-2-one]
> 310 °C	–	73	–	–	–	70	CCCCCn1cc2c(C3C(=O)Nc4ccc(C#N)cc43)nc(NC)nc2n1 (stereo not drawn) [Example 294, 3-(6-Methylamino-2-pentyl-2H-pyrazolo [3,4-d]pyrimidin-4-yl)-2-oxo-2,3-dihydro-1H-indole-5-carbonitrile]
> 300 °C	> 10000	–	–	–	> 3000	–	N#Cc1ccc2c(c1)NC(=O)C2c1ncnc2c1cnn2C1CCCCC1 (stereo not drawn) [Example 69, 3-(1-Cyclohexyl-1H-pyrazolo[3,4-d]pyrimidin-4-yl)-2-oxo-2,3-dihydro-1H-indole-6-carbonitrile]
